Measured values reported in ChEMBL document CHEMBL1157451, “Effect of some P-glycoprotein modulators on Rhodamine-123 absorption in guinea-pig ileum” (Bioorg Med Chem Lett, 2008).

Assay: Inhibition of P-glycoprotein-mediated rhodamine 123 absorption in guinea-pig ileum
Assay type: tissue-based
Conditions: Cavia porcellus

Row | EC50 | SMILES
1 | 14.7 µM | COc1cccc(CCc2ccccc2OCc2ccccn2)c1
2 | 39.4 µM | CC/C(=C(\c1ccccc1)c1ccc(OCCN(C)C)cc1)c1ccccc1 [TAMOXIFEN]
